One data set concerns SNB19 cells. Briefly: CellTiter-Glo cell viability assay of SNB19 cells. The settings on record: 48 h. It is filed as cell-based, human. The method, then:
Cells were harvested in growth media and dispensed (5 µL /1,000 cells/well) onto 1536-well white plates (Aurora #EWB041000A) using a Multidrop Combi. Control and test compounds were added (25 nL) using an Echo 650 liquid handler. Plates were incubated for 48 h at 37 °C and 5% CO2 and then equilibrated to room temperature prior to addition of 4 µL /well of CellTiter-Glo (Promega) using a Multidrop Combi. Plates were subsequently incubated for 15 min at room temperature and centrifuged for 1 min at 1000 rpm. Luminescence was read on a ViewLux imager equipped with clear filters.

Data set [1] deals with T1, CHIKV nsP2pro (Chikungunya virus, UniProt Q8JUX6). Briefly: FRET-based nsP2pro proteolytic assay with peptide 2 (nsp3/4 site), 1,536-well qHTS. The data set is classed as biochemical. For orientation: In qHTS, concentration-response curves come from the screen itself.
For another data set, the target named is T2, nsP2 protease (Chikungunya virus, UniProt Q8JUX6).
T2 construct: expressed in transfected cells; host or cells: HEK293T (the results text says HEK293), transient co-transfection in pcDNA3.1(+)
T2 sequence (Q8JUX6 755-1333 limits assumed): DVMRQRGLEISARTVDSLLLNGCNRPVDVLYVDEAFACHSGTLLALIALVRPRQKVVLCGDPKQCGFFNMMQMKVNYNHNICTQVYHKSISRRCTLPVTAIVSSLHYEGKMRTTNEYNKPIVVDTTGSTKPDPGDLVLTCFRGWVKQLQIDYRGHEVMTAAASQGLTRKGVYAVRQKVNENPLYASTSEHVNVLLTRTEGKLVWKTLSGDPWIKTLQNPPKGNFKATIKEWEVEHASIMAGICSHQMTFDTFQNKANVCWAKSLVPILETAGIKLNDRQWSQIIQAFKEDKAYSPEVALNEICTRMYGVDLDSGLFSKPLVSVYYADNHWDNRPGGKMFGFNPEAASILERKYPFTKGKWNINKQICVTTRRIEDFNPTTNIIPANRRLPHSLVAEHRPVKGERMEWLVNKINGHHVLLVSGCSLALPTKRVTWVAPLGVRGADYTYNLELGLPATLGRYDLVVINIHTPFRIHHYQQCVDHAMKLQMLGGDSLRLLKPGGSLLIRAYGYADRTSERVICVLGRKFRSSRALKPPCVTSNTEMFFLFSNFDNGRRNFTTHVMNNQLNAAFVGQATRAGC
Nature of the data set: cell-based. The data set is classed as cell-based.

For another data set, the target named is T3, full-length nsP2 (Chikungunya virus, UniProt Q8JUX6, C1333A).
T3 sequence (Q8JUX6 536-1333 C1333A): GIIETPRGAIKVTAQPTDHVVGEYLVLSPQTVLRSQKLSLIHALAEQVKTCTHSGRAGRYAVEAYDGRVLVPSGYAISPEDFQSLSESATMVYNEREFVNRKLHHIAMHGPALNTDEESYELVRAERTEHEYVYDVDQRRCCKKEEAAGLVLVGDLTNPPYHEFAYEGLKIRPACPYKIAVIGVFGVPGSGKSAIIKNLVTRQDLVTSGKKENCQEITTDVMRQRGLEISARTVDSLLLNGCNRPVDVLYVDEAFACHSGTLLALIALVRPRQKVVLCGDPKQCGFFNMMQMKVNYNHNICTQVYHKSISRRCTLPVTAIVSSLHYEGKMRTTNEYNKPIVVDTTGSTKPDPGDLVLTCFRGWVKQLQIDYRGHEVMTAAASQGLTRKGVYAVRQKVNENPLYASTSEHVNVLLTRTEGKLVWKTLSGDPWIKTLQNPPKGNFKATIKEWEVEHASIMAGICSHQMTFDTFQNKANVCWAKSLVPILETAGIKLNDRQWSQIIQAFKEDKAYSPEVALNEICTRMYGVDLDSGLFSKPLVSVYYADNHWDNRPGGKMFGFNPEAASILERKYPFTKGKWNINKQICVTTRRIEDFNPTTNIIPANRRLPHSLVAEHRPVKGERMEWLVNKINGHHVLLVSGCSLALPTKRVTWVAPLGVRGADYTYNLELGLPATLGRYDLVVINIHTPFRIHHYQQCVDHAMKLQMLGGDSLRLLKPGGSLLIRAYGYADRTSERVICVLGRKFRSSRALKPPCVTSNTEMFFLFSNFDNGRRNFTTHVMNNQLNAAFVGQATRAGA
Briefly: FRET-based full-length nsP2 proteolytic assay with peptide 2. It is filed as biochemical. The settings on record: full-length nsP2 and peptide 2; read-out: IC50, inhibition of nsp3/4 cleavage by full-length enzyme. The method, then: (§1) To gain further insight on their therapeutic potential, we investigated whether confirmed hits inhibit proteolytic activity in the context of full-length nsP2 protein rather than isolated protease domain[13]. To test the set of confirmed inhibitors, we chose peptide 2 substrate and full-length enzyme concentrations of 1 μM and 150 nM, respectively. Compound activity correlated well between nsP2pro and full-length enzyme (Fig. 2A). Additionally, we tested whether hits inhibit proteolysis of the nsP2/3 site.
All reactions were incubated at room temperature (RT).
Two point five μM peptide 2 substrate and 150 nM nsP2pro were selected to run the assay into 1536-well plate format. ZnAc was used as a positive control in the assay (50 µM). […] For primary screens, compounds were tested at 7 concentrations, 1:3 dilution points ranging from 25 µM to 34 nM. […] Four µL nsP2pro enzyme mix in assay buffer (10 mM Tris⋅HCl pH 8.0 with 0.01% Tween 20) was dispensed into the plate using a BioRAPTR FRD liquid dispenser (Beckman Coulter). […] After 1 h, plates were immediately read on a ViewLux high-throughput CCD imager (Exposure = 10 s, Gain = High, Speed = Slow, Binning = 2X). The above assay was also incorporated in the NCATS HTS facility, which allowed for robotic liquid and compound dispensing, microplate handling, and fluorescence reading. […]

For another data set, the system named is CHIKV. Also on record: method as in PMID 30018455. Conditions: cited from earlier work.
The target of data set [2] is T1, CHIKV nsP2pro. Nature of the data set: FRET-based nsP2pro proteolytic assay with peptide 3 (nsp2/3 site). It is filed as biochemical. The settings on record: nsP2pro and peptide 3; read-out: IC50, inhibition of cleavage of nsp2/3 peptide by nsp2pro. The method, then: as §1
Two point five μM peptide 2 substrate and 150 nM nsP2pro were selected to run the assay into 1536-well plate format. ZnAc was used as a positive control in the assay (50 µM). […] For primary screens, compounds were tested at 7 concentrations, 1:3 dilution points ranging from 25 µM to 34 nM. […] Four µL nsP2pro enzyme mix in assay buffer (10 mM Tris⋅HCl pH 8.0 with 0.01% Tween 20) was dispensed into the plate using a BioRAPTR FRD liquid dispenser (Beckman Coulter). The plate was incubated at RT (protected from light) for 15 min before addition of 4 µL substrate in assay buffer. After 1 h, plates were immediately read on a ViewLux high-throughput CCD imager (Exposure = 10 s, Gain = High, Speed = Slow, Binning = 2X). The above assay was also incorporated in the NCATS HTS facility, which allowed for robotic liquid and compound dispensing, microplate handling, and fluorescence reading. […]

Molecules are shown by their SMILES.

Data on two compounds can be found in publication PMC12480751, “A quantitative high-throughput screening pipeline to identify small molecule inhibitors of Chikungunya nsP2 protease” (Scientific Reports, 2025).

In general, CC50 refers to the concentration giving 50% cytotoxicity. A high value points to better tolerance by the cells. As a reminder, the AC50 is the midpoint of the concentration-response curve, whichever way the signal moves.

In the data set on SNB19 cells, `CC(C)n1nc(C#Cc2ccccc2)c2c(N)ncnc21` [SPP 86] returned a cytotoxic concentration (CC50) of 16.4 µM. In addition, the “Enzymatic % Efficacy” value on CHIKV nsP2pro [1] (nsP2pro biochemical assay, 13 cell-active hits) is given as -114.8%. Moreover, at CHIKV nsP2pro [1] (nsP2pro biochemical assay, 13 cell-active hits, read-out: Enzymatic IC50), the IC50 worked out at 8 µM. Besides, at nsP2 protease, the “Cell-based % Efficacy” value is reported as 146.3%. The AC50 at nsP2 protease (read-out: Cell-based AC50) was 18.3 µM.

As for `CC(=O)[O-].CC(=O)[O-].[Zn+2]` [ZnAc, Zinc acetate], the IC50 on CHIKV nsP2pro [1] (nsP2pro and peptide 2, read-out: IC50, inhibition of nsp3/4 cleavage by nsP2pro) was found to be 0.192 ± 0.012 µM; at full-length nsP2 it was 0.137 ± 0.011 µM; at CHIKV nsP2pro [2] it was 0.685 ± 0.077 µM. Besides, the “concentrations effective in preventing CHIKV viral infection” value in the data set with CHIKV is “higher than 60 µM”. For the same compound, on nsP2 protease, the “effect on Nluc reporter signal in cellular nsp2 proteolytic assay” value is given as “did not increase Nluc reporter signal”.
